How the values were obtained:
SpoTAb = assay: HD (ppGpp hydrolysis) activity of SpoTAb in presence of added factors; type: biochemical, Acinetobacter baumannii; details: metal-free full-length SpoTAb (completely HD inactive)
Excerpt: FIG. 1. Full-length monomeric A. baumannii SpoT adopts a compact “mushroom”-shaped HD-active τ-state. (a) Structure of “mushroom”-shaped SpoTAb-ppGpp complex in the τ-state. The domain organization, from N to C terminus: NTD domains hydrolase (HD), pseudo-synthetase (pseudo-SYNTH) and Core, and CTD domains, TGS, Helical (HEL), Zn-finger (ZFD) and RNA recognition motif (RRM). The ppGpp alarmone is labelled. (b) Cartoon representation the SpoTAb. The “stem” of the mushroom is formed by the enzymatic HD domain and the “cap” by the regulatory domains: NTD pseudo-SYNTH domain and the CTD domains. (c) Ribbon representation of the SpoTAb-ppGpp complex. The α6/α7 motif is held in the hydrolysis-compatible position by the folded Core domain and the TGS β-hairpin, with the Core domain communicating allosteric signals to HD from the regulatory domains. […] (e) Analytical size exclusion chromatography (SEC) of SpoTAb supports its monomeric nature in solution. (f) Experimental X-ray scattering (SAXS) analysis of SpoTAb at 8 mg/mL further confirms the monomeric nature of SpoTAb. […] (g) Ab initio envelope of SpoTAb reconstructed from the experimental SAXS data superimposed on the crystal structure.
While the SYNTH and TGS domains are sequestered in the “cap”, the HD hydrolase stands out unconfined and primed for (p)ppGpp hydrolysis. […]

SpoTAb^NTD = assay: Isothermal titration calorimetry (ITC) of ligand binding to SpoTAb^NTD; set-up: species or system Acinetobacter baumannii
Excerpt: This is also the case with the specialisation of SpoTAb as a monofunctional hydrolase where the pseudo-SYNTH domain has evolved into a strictly regulatory/structural domain. […] These involve the residues that coordinate adenosine and guanosine (R249 to N241, R277 to E267 and Y329 to N304) and the majority of phosphate-coordinating groups. Crucially, the catalytic residues D272 and Q347 are substituted for S263 and T321, respectively. […]; Roghanian et al., Mol Cell, 2021).
To directly validate the lack of pppGpp-mediated regulation in SpoTAb, we characterised the interaction between pppGpp and SpoTAb^NTD by ITC. […] Following the experimental approach used earlier for SpoTEc (Roghanian et al., Mol Cell, 2021), we next grafted the allosteric site of A. baumannii RelA (^236RelA^246) onto SpoTAb^NTD (replacing ^201SpoTAb^211).
The essential role of the divalent manganese ion Mn^2+ in (p)ppGpp pyrophosphate hydrolysis is well documented for both Rel (Hogg et al., Cell, 2004; Takada et al., Nucleic Acids Res, 2021; Avarbock et al., Biochemistry, 2000; Van Nerom et al., Acta Crystallogr F Struct Biol Commun, 2019) and SpoTEc (Heinemeyer et al., Eur J Biochem, 1978).

[1] = molecular target: the molecule itself; assay: SEC-SAXS and analytical size exclusion chromatography in solution (oligomeric state, self-association)

Molecule: [Mn+2] [Mn^2+]
- HD activity upon addition to metal-free enzyme (SpoTAb): readily restored

Molecule: Nc1nc2c(ncn2[C@@H]2O[C@H](COP(=O)(O)OP(=O)(O)O)[C@@H](O)[C@H]2O)c(=O)[nH]1 [GDP]
- GDP binding by SpoTAb (SpoTAb^NTD): does not bind

Molecule: Nc1nc2c(ncn2C2OC(COP(=O)(O)OP(=O)(O)OP(=O)(O)O)C(OP(=O)(O)OP(=O)(O)O)C2O)c(=O)[nH]1 (stereo not shown) [pppGpp, guanosine pentaphosphate]
- allosteric binding of pppGpp (SpoTAb^NTD): does not bind

B1: Acinetobacter baumannii SpoT enzyme (enzyme)
chain: MPGEEVSQAKQQLKLIIDPYLSVSEVEKVLAACDFGDLAHTGITRKSGEPYILHPIAVSCILANMRLDPETLMAALLHDVIEDTQYTKDDIIERFGQTVAELVDGVTKLSQSSDKEYNKAASFRKILQATLQDPRVIIIKLADRYHNMTTLGALRPDKRARIAQETFDIFVPMARLVGMNEMADNLENLCYQNLDLDMFDNVQNALLQTKPERCKYQSIWEQNLAELLHNYHIQGRIKKKNNNIELLRHFVKNEMDLQELTHSHAFEIVLQSIADCDRLVAALKENFQVIQYQDHIRRPLPGGNQSLMIKLKGEKTTLSLTIQTELMRKAARFGVVLGENAPQTCRSAIQASMQNLNTLIDGECAKTTFNDLLDYLHQEKIWVYTPHGQLHELPQGATVVDFAYSASLFLGNHAVGAKVDGEIKPLSTPLVSGQVIEIITDVLATPNPDWLSFINTQKARRALQHVLKDQDIEEQRLVGAQALSRALKLFNRSINDLSDADWLDLLQWRHIDNKDALFEQIAVGDLLPQLVANHLFANDKHPRAENSDRLIQGTEGIDVKYAHCCNPILGDPIQGHLTRRGLIVHRIRCHNLLHEQHLHPENIMPLQWKADDVDDVRFTAYLAIYMAMNDEQVSDLIYQCRKNNAGVEMVHSNEQRTFVNIVVNNRKHIAKVIRDLRMHYGFPRIERLDAPAPQMEISKVS
notes: Full-length wild-type SpoTAb; also called SpoTAb; A. baumannii SpoT
- binding result [1]: no binding (tested: 8 mg/mL)
